What is called IC50 is the concentration that gives 50% inhibition. By CC50 is commonly meant the concentration at which the toxic effect on the cells reaches its halfway point. Read a low CC50 as greater toxicity to the cells.

For one data set, the system named is HBeAg. The data set can be described thus: PHH natural infection assay, HBeAg (alphalisa). The data set is classed as cell-based, HBV. Particulars: Hepatitis B virus, Hepatocyte, read-out: HBeAg IC50, HBV-infected primary human hepatocytes, supernatant, alphalisa. On the procedure:
(§1) Detailed procedures regarding primary human hepatocyte (PHH) HBV natural infection assay are described as below. One tube of frozen PHH (10 million cells) is thawed in 37° C. water bath and then transferred to 20 mL of PHH thawing medium (Sigma, InVitroGRO HT Medium, Cat. S03319) with gently mixing. The cells were then centrifuged at […] for 5 min, the supernatant was discarded and the tube was refilled with 25 mL of PHH plating medium (Sigma, InVitroGRO CP Medium, Cat. S03317). The tube was shaken very gently to re-suspend all cells, and then 50 μL of cells were transferred to each well 384-well collagen I coated plate with appropriate liquid handling equipment, e.g. Integra VIAFLO384 or Agilent Bravo. The cells were then cultured for 24 hours in a cell incubator. For HBV infection, after PHH attachment on the culture plate, the plating medium was removed and replenished with PHH culture medium containing HBV virus. The PHH culture medium was prepared with Dulbecco's Modified Eagle Medium (DMEM)/F12 (1:1 in volume ratio) containing 10% fetal bovine serum (Gibco, Cat. 10099141), 5 ng/mL human epidermal growth factor (Gibco, Cat.PHG0311L), 20 ng/mL dexamethasone (Sigma, Cat.D4902-100 mg), 250 ng/mL human recombinant insulin (Gibco, Cat.41400045) and 100 U/mL penicillin. HBV virus at 200 genome equivalent (GE) per cell with 4% PEG8000 (Sigma, Cat.P1458) containing culture medium were added to the PHH culture medium for infection. The cells were then cultured for 24 hours in cell incubator. Then the cell culture supernatant was removed. The HBV-infected PHH were cultured with sandwich culture method with PHH culture medium containing […] and 0.25 mg/mL matrix gel for 72 hours. The supernatant was then refreshed with PHH culture medium containing different concentrations of testing compounds for two times with 72-hour interval. At the end of treatment, the supernatant was collected for viral markers measurements, including HBsAg, HBeAg, HBV DNA and cytotoxicity. HBsAg and HBeAg were detected using alphalisa method using their specific antibodies. For HBV DNA detection, HBV DNA Quantitative Fluorescence Diagnostic Kit (Sansure Biotech Inc.) was used following the manufacture's protocol. Cytotoxicity was determined using Cell Counting Kit-8 (CCK8, Dojindo Molecular Technologies, Inc.).
(§2) The compounds of the present invention were tested for their capacity to inhibit HBsAg and HBeAg as described herein.

Another data set has as its system HBsAg. The data set can be described thus: PHH natural infection assay, HBsAg (alphalisa). It is filed as cell-based, HBV. As to conditions: Hepatitis B virus, Hepatocyte, read-out: HBsAg IC50, HBV-infected primary human hepatocytes, supernatant, alphalisa. On the procedure:
as §1, §2
A general note: Bead proximity is the source of the signal in Alpha formats.

A short description of data set [1]: Cytotoxicity in PHH natural infection assay (Cell Counting Kit-8). As to conditions: HBV-infected primary human hepatocytes, CCK8. The data set is classed as cell-based. The procedure: as §1
(Tetrazolium dyes change colour on reduction, which living cells bring about.)

On to `CN1C(=O)CCC1CC(=O)NC1CC2(C1)CC(c1nc3cc(Cl)ccc3o1)C2` (stereo not drawn) [Example 36, N-[6-(5-chloro-1,3-benzoxazol-2-yl)spiro[3.3]heptan-2-yl]-2-(1-methyl-5-oxo-pyrrolidin-2-yl)acetamide], for which the concentration for half-maximal inhibition (IC50) in the data set on HBeAg amounted to 3.72 µM; in the data set with HBsAg, 4.05 µM. This compound also came in with a cytotoxic concentration (CC50) at 144 h in data set [1] of over 10 µM.

Turning to `O=C1CCC(CC(=O)NC2CC3(C2)CC(c2nc4cc(Cl)ccc4o2)C3)N1` (stereo not drawn) [Example 37, N-[6-(5-chloro-1,3-benzoxazol-2-yl)spiro[3.3]heptan-2-yl]-2-(5-oxopyrrolidin-2-yl)acetamide], the IC50 was determined as 3.75 µM in the data set with HBeAg and 6 µM in the data set on HBsAg. In addition, the CC50 at 144 h in data set [1] was over 10 µM.

Regarding `NS(=O)(=O)CCC(=O)NC1CC2(C1)CC(c1nc3cc(Cl)ccc3o1)C2` (stereo not drawn) [Example 38, N-[6-(5-chloro-1,3-benzoxazol-2-yl)spiro[3.3]heptan-2-yl]-3-sulfamoyl-propanamide], the IC50 in the data set with HBeAg worked out at 5.49 µM; in the data set on HBsAg it was 9.48 µM. The same compound returned a CC50 at 144 h in data set [1] of over 10 µM.

Take `NS(=O)(=O)CCCC(=O)NC1CC2(C1)CC(c1nc3cc(Cl)ccc3o1)C2` (stereo not drawn) [Example 39, N-[6-(5-chloro-1,3-benzoxazol-2-yl)spiro[3.3]heptan-2-yl]-4-sulfamoyl-butanamide]: the values for the IC50 with HBeAg and in the data set on HBsAg were 4.8 µM and 5.98 µM, respectively. Further, the CC50 at 144 h in data set [1] was over 10 µM.

For the compound `O=C(NC1CC2(C1)CC(c1nc3cc(Cl)ccc3o1)C2)C1CCS(=O)(=O)C1` (stereo not drawn) [Example 40, N-[6-(5-chloro-1,3-benzoxazol-2-yl)spiro[3.3]heptan-2-yl]-1,1-dioxo-thiolane-3-carboxamide], the IC50 in the data set with HBeAg was 5.09 µM; with HBsAg, 5.72 µM. For the same compound, in data set [1], the half-maximal cytotoxic concentration (CC50) at 144 h is over 100 µM.

Regarding `O=C(NC1CC2(C1)CC(c1nc3ncccc3o1)C2)C1CCS(=O)(=O)C1` (stereo not drawn) [Example 41, N-(6-oxazolo[4,5-b]pyridin-2-ylspiro[3.3]heptan-2-yl)-1,1-dioxo-thiolane-3-carboxamide], the 50% inhibitory concentration (IC50) came out at 2.32 µM in the data set with HBeAg and 5.28 µM in the data set with HBsAg. In data set [1], this compound showed a half-maximal cytotoxic concentration (CC50) at 144 h of over 100 µM.

As to `O=C(NC1CC2(C1)CC(c1nc3cc(Cl)ccc3o1)C2)C1CCCS1(=O)=O` (stereo not drawn) [Example 42, N-[6-(5-chloro-1,3-benzoxazol-2-yl)spiro[3.3]heptan-2-yl]-1,1-dioxo-thiolane-2-carboxamide], the IC50 in the data set with HBeAg was 5.67 µM; in the data set on HBsAg, 9.7 µM. The CC50 at 144 h in data set [1] is over 100 µM.

With `O=C(NC1CC2(C1)CC(c1nc3cc(Cl)ccc3o1)C2)C1CNS(=O)(=O)C1` (stereo not drawn) [Example 43, N-[6-(5-chloro-1,3-benzoxazol-2-yl)spiro[3.3]heptan-2-yl]-1,1-dioxo-1,2-thiazolidine-4-carboxamide], the IC50 in the data set with HBeAg came out at 3.81 µM; in the data set with HBsAg it was 9.04 µM. In data set [1], this compound returned a cytotoxic concentration (CC50) at 144 h of over 10 µM.

With `O=C(NC1CC2(C1)CC(c1nc3cc(Cl)ccc3o1)C2)C1CN(Cc2ccccc2)S(=O)(=O)C1` (stereo not drawn) [Example 44, 2-benzyl-N-[6-(5-chloro-1,3-benzoxazol-2-yl)spiro[3.3]heptan-2-yl]-1,1-dioxo-1,2-thiazolidine-4-carboxamide], the IC50 in the data set with HBeAg was determined as 4.6 µM; in the data set with HBsAg, 4.44 µM. The same compound registered a cytotoxic concentration (CC50) at 144 h in data set [1] of over 10 µM.

For the compound `O=C(NC1CC2(C1)CC(c1nc3cc(Cl)ccc3o1)C2)C1CCS(=O)(=O)N1` (stereo not drawn) [Example 45, N-[6-(5-chloro-1,3-benzoxazol-2-yl)spiro[3.3]heptan-2-yl]-1,1-dioxo-1,2-thiazolidine-3-carboxamide], the values for the IC50 with HBeAg and in the data set with HBsAg were 1.36 µM and 2.41 µM, respectively. This compound also returned a cytotoxic concentration (CC50) at 144 h in data set [1] of over 100 µM.

Regarding `CN1C(C(=O)NC2CC3(C2)CC(c2nc4cc(Cl)ccc4o2)C3)CCS1(=O)=O` (stereo not drawn) [Example 46, N-[6-(5-chloro-1,3-benzoxazol-2-yl)spiro[3.3]heptan-2-yl]-2-methyl-1,1-dioxo-1,2-thiazolidine-3-carboxamide], the IC50 with HBeAg is 3.41 µM; with HBsAg, 3.9 µM. The compound also returned a CC50 at 144 h in data set [1] of over 10 µM.

As for `O=C(CC1CCCS1(=O)=O)NC1CC2(C1)CC(c1nc3cc(Cl)ccc3o1)C2` (stereo not drawn) [Example 47, N-[6-(5-chloro-1,3-benzoxazol-2-yl)spiro[3.3]heptan-2-yl]-2-(1,1-dioxothiolan-2-yl)acetamide], the concentration for half-maximal inhibition (IC50) in the data set with HBeAg was 2.1 µM; with HBsAg, 3.46 µM. The cytotoxic concentration (CC50) at 144 h in data set [1] was over 100 µM.

As to `CC1(C(=O)NC2CC3(C2)CC(c2nc4cc(Cl)ccc4o2)C3)CCS(=O)(=O)C1` (stereo not drawn) [Example 48, N-(6-(5-chlorobenzo[d]oxazol-2-yl)spiro[3.3]heptan-2-yl)-3-methyltetrahydrothiophene-3-carboxamide 1,1-dioxide], the IC50 in the data set with HBeAg was 1.1 µM; in the data set on HBsAg, 2.62 µM. This compound returned a cytotoxic concentration (CC50) at 144 h in data set [1] of over 100 µM.

With `O=C(NC1CC2(C1)CC(c1nc3cc(Cl)ccc3o1)C2)C1CS(=O)(=O)C1` (stereo not drawn) [Example 49, N-[6-(5-chloro-1,3-benzoxazol-2-yl)spiro[3.3]heptan-2-yl]-1,1-dioxo-thietane-3-carboxamide], the concentration for half-maximal inhibition (IC50) was 2.61 µM with HBeAg and 3.27 µM in the data set on HBsAg. Further, the CC50 at 144 h in data set [1] stood at 96.1 µM.

For the compound `O=C(CC1CS(=O)(=O)C1)NC1CC2(C1)CC(c1nc3cc(Cl)ccc3o1)C2` (stereo not drawn) [Example 50, N-[6-(5-chloro-1,3-benzoxazol-2-yl)spiro[3.3]heptan-2-yl]-2-(1,1-dioxothietan-3-yl)acetamide], the results for the half-maximal inhibitory concentration (IC50) in the data set on HBeAg and with HBsAg were 1.36 µM and 1.96 µM, respectively. In data set [1], the CC50 at 144 h is over 100 µM.

As to `O=C(NC1CC2(C1)CC(c1nc3cc(Cl)ccc3o1)C2)C1CC2(C1)CS(=O)(=O)C2` (stereo not drawn) [Example 52, N-[6-(5-chloro-1,3-benzoxazol-2-yl)spiro[3.3]heptan-2-yl]-2,2-dioxo-2-thiaspiro[3.3]heptane-6-carboxamide], the figures for the half-maximal inhibitory concentration (IC50) in the data set on HBeAg and in the data set on HBsAg were 5.71 µM and 9.99 µM, respectively. In data set [1], this compound came in with a 50% cytotoxic concentration (CC50) at 144 h of over 100 µM.

On to `O=C(NC1CC2(C1)CC(c1nc3cc(Cl)ccc3o1)C2)C1CCS(=O)(=O)CC1` (stereo not drawn) [Example 53, N-[6-(5-chloro-1,3-benzoxazol-2-yl)spiro[3.3]heptan-2-yl]-1,1-dioxo-thiane-4-carboxamide], for which the IC50 was 5.23 µM with HBeAg and 6.7 µM in the data set on HBsAg. This compound yielded a cytotoxic concentration (CC50) at 144 h in data set [1] of over 100 µM.

On to `CC1(C(=O)NC2CC3(C2)CC(c2nc4cc(Cl)ccc4o2)C3)CCS(=O)(=O)CC1` (stereo not drawn) [Example 54, N-(6-(5-chlorobenzo[d]oxazol-2-yl)spiro[3.3]heptan-2-yl)-4-methyltetrahydro-2H-thiopyran-4-carboxamide 1,1-dioxide], for which the results for the half-maximal inhibitory concentration (IC50) in the data set with HBeAg and in the data set on HBsAg were 1.86 µM and 1.94 µM, respectively. Besides, the CC50 at 144 h in data set [1] was over 100 µM.

`O=C(CC1CCCS(=O)(=O)C1)NC1CC2(C1)CC(c1nc3cc(Cl)ccc3o1)C2` (stereo not drawn) [Example 55, N-[6-(5-chloro-1,3-benzoxazol-2-yl)spiro[3.3]heptan-2-yl]-2-(1,1-dioxothian-3-yl)acetamide]: the half-maximal inhibitory concentration (IC50) is 2.6 µM in the data set on HBeAg and 3.39 µM with HBsAg. Besides, the CC50 at 144 h in data set [1] was found to be 78.9 µM.

In the case of `O=C(CN1CCCCS1(=O)=O)NC1CC2(C1)CC(c1nc3cc(Cl)ccc3o1)C2` (stereo not drawn) [Example 56, N-[6-(5-chloro-1,3-benzoxazol-2-yl)spiro[3.3]heptan-2-yl]-2-(1,1-dioxothiazinan-2-yl)acetamide], the half-inhibitory concentration (IC50) in the data set with HBeAg is 2.06 µM; in the data set on HBsAg, 2.29 µM. In data set [1], this compound showed a CC50 at 144 h of over 100 µM.

In the case of `O=C(NC1CC2(C1)CC(c1nc3cc(C(F)(F)F)ccc3o1)C2)C1CCS(=O)(=O)CC1` (stereo not drawn) [Example 57, 1,1-dioxo-N-[6-[5-(trifluoromethyl)-1,3-benzoxazol-2-yl]spiro[3.3]heptan-2-yl]thiane-4-carboxamide], the IC50 in the data set on HBeAg worked out at 3.59 µM; in the data set on HBsAg, 4.47 µM. In data set [1], this compound displayed a cytotoxic concentration (CC50) at 144 h of over 100 µM.

Consider `CC(C)S(=O)(=O)NC1CC2(C1)CC(c1nc3cc(Cl)ccc3o1)C2` (stereo not drawn) [Example 58, N-[6-(5-chloro-1,3-benzoxazol-2-yl)spiro[3.3]heptan-2-yl]propane-2-sulfonamide], for which the concentration for half-maximal inhibition (IC50) was found to be 5.97 µM with HBeAg and 6.19 µM in the data set with HBsAg. For the same compound, the CC50 at 144 h in data set [1] was over 100 µM.

For the compound `CCNC(=O)NC1CC2(C1)CC(c1nc3cc(Cl)ccc3o1)C2` (stereo not drawn) [Example 59, 1-[6-(5-chloro-1,3-benzoxazol-2-yl)spiro[3.3]heptan-2-yl]-3-ethyl-urea], the IC50 in the data set on HBeAg is 3.94 µM; in the data set with HBsAg, 8.6 µM. In data set [1], this compound displayed a 50% cytotoxic concentration (CC50) at 144 h of over 100 µM.

The values above are taken from US20230286968A1, “ARYLOXAZOLO SPIRAL RING DERIVATIVES FOR THE TREATMENT AND PROPHYLAXIS OF HEPATITIS B VIRUS INFECTION” (Hoffmann-La Roche Inc., priority 2020, published 2023).
